{"source": "patent US9066990B2", "about": "“Preparation for restenosis prevention” (priority 2001, dated 2015)", "test": "Solubility in the contrast agent or physiological NaCl solution", "data": [{"smiles": "CC(=O)O[C@H]1C(=O)[C@@]2(C)[C@H]([C@H](OC(=O)c3ccccc3)[C@]3(O)C[C@H](OC(=O)[C@H](O)[C@@H](NC(=O)c4ccccc4)c4ccccc4)C(C)=C1C3(C)C)[C@]1(OC(C)=O)CO[C@@H]1C[C@@H]2O", "note": "[paclitaxel, 4,10-β-diacetoxy-13-α-((2R,3S)-3-ben-zamido-2-hydroxy-3-phenylpropionyloxy)-2α-benzoyloxy-5-β, 20-epoxy-1,7-β-dihydroxy-11-taxene-9-one]", "values": [{"measurement": "appearance of preparation after mixing", "setting": "4.2 mg paclitaxel in 0.5 ml of ethanol added at room temperature to 50 ml of 0.9% NaCl solution", "value": "becomes turbid immediately after mixing"}, {"measurement": "particles under a microscope", "setting": "4.2 mg paclitaxel in 50 ml of 0.9% NaCl solution", "value": "Large aggregations of fine particles"}, {"measurement": "appearance of solution after mixing", "setting": "7.6 mg paclitaxel in 0.5 mg of ethanol added at room temperature to 50 ml Ultravist-370", "value": "clear solution without any turbidity"}, {"measurement": "particles under a microscope", "setting": "7.6 mg paclitaxel in 50 ml Ultravist-370", "value": "No particles can be identified"}, {"measurement": "stability of the solution", "setting": "7.6 mg paclitaxel in 50 ml Ultravist-370, room temperature", "value": "remains stable for several days"}]}]}
